Measurements from PubChem BioAssay AID1918954 (Molecular Pharmacology Branch, DTP, NCI, 2023).
Several values for one entry are separate records, joined by “and”; a condition that tells them apart may be missing. Equal entries are not always repeated.

System: MDA-MB-468 complex spheroids with HUVEC/MSC, viability
Assay: Anticancer human tumor MDA-MB-468 cell line growth inhibition;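 note: spheroids exposed to agents for seven days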;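 for viability, T/C: 100% = DMSO vehicle control viability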
Settings: for viability, T/C: stronger effect = lower value
How it was run: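 Complex spheroids of tumor cells with HUVEC and human MSCs, exposed to iadademstat combined with other agents. Each agent tested in half-log steps from near clinical Cmax (else 10 microM top), DMSO ≤0.25%.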

[1] = curve of first compound, second compound 0.1 µM
[2] = curve of first compound, second compound 0.316 µM
[3] = curve of first compound, second compound 1 µM
[4] = curve of first compound, second compound 3.16 µM
[5] = curve of first compound, second compound 10 µM
[6] = second compound 0.1 µM, first compound 0.00316 µM
[7] = second compound 0.1 µM, first compound 0.01 µM
[8] = second compound 0.1 µM, first compound 0.0316 µM
[9] = second compound 0.1 µM, first compound 0.1 µM
[10] = second compound 0.316 µM, first compound 0.00316 µM
[11] = second compound 0.316 µM, first compound 0.01 µM
[12] = second compound 0.316 µM, first compound 0.0316 µM
[13] = second compound 0.316 µM, first compound 0.1 µM
[14] = second compound 1 µM, first compound 0.00316 µM
[15] = second compound 1 µM, first compound 0.01 µM
[16] = second compound 1 µM, first compound 0.0316 µM
[17] = second compound 1 µM, first compound 0.1 µM
[18] = second compound 3.16 µM, first compound 0.00316 µM
[19] = second compound 3.16 µM, first compound 0.01 µM
[20] = second compound 3.16 µM, first compound 0.0316 µM
[21] = second compound 3.16 µM, first compound 0.1 µM
[22] = second compound 10 µM, first compound 0.00316 µM
[23] = second compound 10 µM, first compound 0.01 µM
[24] = second compound 10 µM, first compound 0.0316 µM
[25] = second compound 10 µM, first compound 0.1 µM
[26] = second compound 0.1 µM, first compound 0.316 µM
[27] = second compound 0.1 µM, first compound 1 µM
[28] = second compound 0.316 µM, first compound 0.316 µM
[29] = second compound 0.316 µM, first compound 1 µM
[30] = second compound 1 µM, first compound 0.316 µM
[31] = second compound 1 µM, first compound 1 µM
[32] = second compound 3.16 µM, first compound 0.316 µM
[33] = second compound 3.16 µM, first compound 1 µM
[34] = second compound 10 µM, first compound 0.316 µM
[35] = second compound 10 µM, first compound 1 µM

## CC(C)CC(NC(=O)C(Cc1ccccc1)NC(=O)c1cnccn1)B(O)O (configuration not stated) + NC1CCC(NC2CC2c2ccccc2)CC1
[1]
  IC50: 0.699 nM
[2]
  IC50: 0.592 nM
[3]
  IC50: 0.642 nM
[4]
  IC50: 0.646 nM
[5]
  IC50: 0.562 nM
Second compound 0.1 µM, first compound 0.000316 µM
  viability, T/C: 102%
Second compound 0.1 µM, first compound 0.001 µM
  viability, T/C: 26.4%
[6]
  viability, T/C: 1.52%
[7]
  viability, T/C: 0.94%
[8]
  viability, T/C: 1.06%
[9]
  viability, T/C: 1.23%
Second compound 0.316 µM, first compound 0.000316 µM
  viability, T/C: 86.6%
Second compound 0.316 µM, first compound 0.001 µM
  viability, T/C: 19.5%
[10]
  viability, T/C: 0.94%
[11]
  viability, T/C: 1.12%
[12]
  viability, T/C: 1%
[13]
  viability, T/C: 0.68%
Second compound 1 µM, first compound 0.000316 µM
  viability, T/C: 94.1%
Second compound 1 µM, first compound 0.001 µM
  viability, T/C: 22.2%
[14]
  viability, T/C: 0.63%
[15]
  viability, T/C: 1.08%
[16]
  viability, T/C: 1.55%
[17]
  viability, T/C: 0.88%
Second compound 3.16 µM, first compound 0.000316 µM
  viability, T/C: 91.9%
Second compound 3.16 µM, first compound 0.001 µM
  viability, T/C: 24.5%
[18]
  viability, T/C: 1.11%
[19]
  viability, T/C: 1%
[20]
  viability, T/C: 0.77%
[21]
  viability, T/C: 1.37%
Second compound 10 µM, first compound 0.000316 µM
  viability, T/C: 83.9%
Second compound 10 µM, first compound 0.001 µM
  viability, T/C: 16.1%
[22]
  viability, T/C: 1.08%
[23]
  viability, T/C: 0.25%
[24]
  viability, T/C: 1.63%
[25]
  viability, T/C: 2.35%

## CC(C)c1c(-c2ccccc2)nc2c(C#N)c[nH]n2c1=O + NC1CCC(NC2CC2c2ccccc2)CC1
[1]
  IC50: > 10000 nM
[2]
  IC50: > 10000 nM
[3]
  IC50: > 10000 nM
[4]
  IC50: > 10000 nM
[5]
  IC50: > 10000 nM
[8]
  viability, T/C: 96.1%
[9]
  viability, T/C: 109%
[26]
  viability, T/C: 109%
[27]
  viability, T/C: 108%
Second compound 0.1 µM, first compound 3.16 µM
  viability, T/C: 105%
Second compound 0.1 µM, first compound 10 µM
  viability, T/C: 85.4%
[12]
  viability, T/C: 99.2%
[13]
  viability, T/C: 101%
[28]
  viability, T/C: 84.3%
[29]
  viability, T/C: 99.5%
Second compound 0.316 µM, first compound 3.16 µM
  viability, T/C: 102%
Second compound 0.316 µM, first compound 10 µM
  viability, T/C: 99.5%
[16]
  viability, T/C: 102%
[17]
  viability, T/C: 103%
[30]
  viability, T/C: 96.3%
[31]
  viability, T/C: 102%
Second compound 1 µM, first compound 3.16 µM
  viability, T/C: 101%
Second compound 1 µM, first compound 10 µM
  viability, T/C: 85.8%
[20]
  viability, T/C: 82.2%
[21]
  viability, T/C: 102%
[32]
  viability, T/C: 77.7%
[33]
  viability, T/C: 95.4%
Second compound 3.16 µM, first compound 3.16 µM
  viability, T/C: 50.7%
Second compound 3.16 µM, first compound 10 µM
  viability, T/C: 62.5%
[24]
  viability, T/C: 74%
[25]
  viability, T/C: 66.7%
[34]
  viability, T/C: 70.2%
[35]
  viability, T/C: 57.2%
Second compound 10 µM, first compound 3.16 µM
  viability, T/C: 66%
Second compound 10 µM, first compound 10 µM
  viability, T/C: 70.4%

## COc1cc(Nc2ncc3c(n2)-c2ccc(Cl)cc2C(c2c(F)cccc2OC)=NC3)ccc1C(=O)O + NC1CCC(NC2CC2c2ccccc2)CC1
[1]
  IC50: 5.48 nM
[2]
  IC50: 5.74 nM
[3]
  IC50: 5.62 nM
[4]
  IC50: 4.4 nM
[5]
  IC50: 4.25 nM
[6]
  viability, T/C: 67.1%
[7]
  viability, T/C: 31%
[8]
  viability, T/C: 15.9%
[9]
  viability, T/C: 7.27%
[26]
  viability, T/C: 7.36%
[27]
  viability, T/C: 6.36%
[10]
  viability, T/C: 70.7%
[11]
  viability, T/C: 30.2%
[12]
  viability, T/C: 16.6%
[13]
  viability, T/C: 8.6%
[28]
  viability, T/C: 7.02%
[29]
  viability, T/C: 7.03%
[14]
  viability, T/C: 69%
[15]
  viability, T/C: 29.8%
[16]
  viability, T/C: 17.8%
[17]
  viability, T/C: 8.46%
[30]
  viability, T/C: 6.49%
[31]
  viability, T/C: 7.09%
[18]
  viability, T/C: 57.8%
[19]
  viability, T/C: 30.5%
[20]
  viability, T/C: 19.4%
[21]
  viability, T/C: 9.33%
[32]
  viability, T/C: 7.94%
[33]
  viability, T/C: 6.66%
[22]
  viability, T/C: 57.7%
[23]
  viability, T/C: 28%
[24]
  viability, T/C: 19.1%
[25]
  viability, T/C: 11.6%
[34]
  viability, T/C: 8.23%
[35]
  viability, T/C: 9.73%

## NS(=O)(=O)OCC1CC(n2ccc3c(NC4CCc5ccccc54)ncnc32)CC1O (configuration not stated)
Compound 0.00949 µM
  viability, T/C: 67.5% and 55.7%
Compound 0.03 µM
  viability, T/C: 52.1% and 28.4%
Compound 0.0949 µM
  viability, T/C: 19.3% and 11.1%
Compound 0.3 µM
  viability, T/C: 12.9% and 5.49%
Compound 0.949 µM
  viability, T/C: 6.45% and 3.24%
Compound 3 µM
  viability, T/C: 3.84% and 2.08%
Curve of compound
  IC50: 31.5 nM and 12 nM

## O=C(C=Cn1cnc(-c2cc(C(F)(F)F)cc(C(F)(F)F)c2)n1)NNc1cnccn1 + NC1CCC(NC2CC2c2ccccc2)CC1
[1]
  IC50: < 3.16 nM
[2]
  IC50: < 3.16 nM
[3]
  IC50: < 3.16 nM
[4]
  IC50: < 3.16 nM
[5]
  IC50: < 3.16 nM
[6]
  viability, T/C: 45.1%
[7]
  viability, T/C: 29.7%
[8]
  viability, T/C: 11.8%
[9]
  viability, T/C: 3.32%
[26]
  viability, T/C: 2.51%
[27]
  viability, T/C: 1.85%
[10]
  viability, T/C: 38.9%
[11]
  viability, T/C: 26.9%
[12]
  viability, T/C: 9.03%
[13]
  viability, T/C: 2.83%
[28]
  viability, T/C: 7.44%
[29]
  viability, T/C: 2.14%
[14]
  viability, T/C: 37.4%
[15]
  viability, T/C: 32%
[16]
  viability, T/C: 10.6%
[17]
  viability, T/C: 3.06%
[30]
  viability, T/C: 2.61%
[31]
  viability, T/C: 6.02%
[18]
  viability, T/C: 38.8%
[19]
  viability, T/C: 31%
[20]
  viability, T/C: 12.4%
[21]
  viability, T/C: 3.59%
[32]
  viability, T/C: 6.05%
[33]
  viability, T/C: 5.81%
[22]
  viability, T/C: 35.4%
[23]
  viability, T/C: 30.1%
[24]
  viability, T/C: 12.3%
[25]
  viability, T/C: 4.27%
[34]
  viability, T/C: 8.47%
[35]
  viability, T/C: 2.53%
